# Legend:
# [1] = tested on: Enterococcus faecalis; experiment: Antibacterial activity against linezolid-resistant Enterococcus faecalis assessed as inhibition of bacterial growth incubated for 16 to 20 hrs by CLSI based broth liquid microdilution method; type: functional; conditions: time 16-20 hrs
# [2] = tested on: Staphylococcus aureus; experiment: Antibacterial activity against methicillin-resistant Staphylococcus aureus assessed as inhibition of bacterial growth incubated for 16 to 20 hrs by CLSI based broth liquid microdilution method; type: functional; conditions: time 16-20 hrs
# [3] = tested on: Staphylococcus aureus; experiment: Antibacterial activity against methicillin-sensitive Staphylococcus aureus assessed as inhibition of bacterial growth incubated for 16 to 20 hrs by CLSI based broth liquid microdilution method; type: functional; conditions: time 16-20 hrs
# [4] = tested on: Staphylococcus aureus; experiment: Antibacterial activity against Staphylococcus aureus ATCC29213 assessed as inhibition of bacterial growth incubated for 16 to 20 hrs by CLSI based broth liquid microdilution method; type: functional; conditions: time 16-20 hrs
# [5] = tested on: Staphylococcus aureus; experiment: Antibacterial activity against linezolid-resistant Staphylococcus aureus assessed as inhibition of bacterial growth incubated for 16 to 20 hrs by CLSI based broth liquid microdilution method; type: functional; conditions: time 16-20 hrs
# [6] = AUC (0 to t) in Sprague-Dawley rat at 10 mg/kg, IG measured upto 24 hrs by LC-MS analysis; type: ADME, organism-based; conditions: in vivo, po
# [7] = Cmax in Sprague-Dawley rat at 10 mg/kg, IG measured upto 24 hrs by LC-MS analysis; type: ADME, organism-based; conditions: in vivo, po
# [8] = Solubility of compound at pH 7.4; type: physicochemical; conditions: buffer
# [9] = Efflux ratio of apparent permeability across […] side in human Caco-2 cells; type: ADME, cell-based
# [10] = AUC (0 to t) in Sprague-Dawley rat at 1 mg/kg, iv measured upto 24 hrs by LC-MS analysis; type: ADME, organism-based; conditions: in vivo
# [11] = Apparent permeability across apical to basolateral side in human Caco-2 cells; type: ADME, cell-based
# [12] = Elimination half life in Sprague-Dawley rat at 1 mg/kg, iv measured upto 24 hrs by LC-MS analysis; type: ADME, organism-based; conditions: in vivo, read-out: beta t1/2 (converted)
# [13] = Bioavailability in Sprague-Dawley rat at 10 mg/kg, IG measured upto 24 hrs by LC-MS analysis; type: ADME, organism-based; conditions: in vivo, po
# [14] = Elimination half life in Sprague-Dawley rat at 10 mg/kg, IG measured upto 24 hrs by LC-MS analysis; type: ADME, organism-based; conditions: in vivo, po, read-out: beta t1/2 (converted)
# [15] = Tmax in Sprague-Dawley rat at 10 mg/kg, IG measured upto 24 hrs by LC-MS analysis; type: ADME, organism-based; conditions: in vivo, po
# [16] = Clearance in Sprague-Dawley rat at 1 mg/kg, iv measured upto 24 hrs by LC-MS analysis; type: ADME, organism-based; conditions: in vivo
# [17] = Aqueous solubility of compound at pH 2 by LC-MS/MS analysis; type: physicochemical; conditions: buffer
# [18] = Apparent volume of distribution in Sprague-Dawley rat at 1 mg/kg, iv measured upto 24 hrs by LC-MS analysis; type: ADME, organism-based; conditions: in vivo, read-out: Vz
# [19] = Solubility of compound at pH 2; type: physicochemical; conditions: buffer
# [20] = Aqueous solubility of compound at pH 7.4 by LC-MS/MS analysis; type: physicochemical; conditions: buffer
SMILES,MIC [1],MIC [2],MIC [3],MIC [4],MIC [5],other results
CCS(=O)(=O)NC[C@H]1CN(c2ccc(-c3ccc(/C=N/N4CCCCC4)nc3)c(F)c2)C(=O)O1,8 mg/L,1 mg/L,1 mg/L,1 mg/L,> 16 mg/L,–
O=C1O[C@@H](CO)CN1c1ccc(-c2ccc(/C=N/Nc3ncccn3)nc2)c(F)c1,4 mg/L,1 mg/L,0.5 mg/L,1 mg/L,1 mg/L,–
O=C1O[C@@H](CO)CN1c1ccc(-c2ccc(/C=N/Nc3ccncn3)nc2)c(F)c1,64 mg/L,1 mg/L,1 mg/L,1 mg/L,1 mg/L,–
CS(=O)(=O)NC[C@H]1CN(c2ccc(-c3ccc(/C=N/N4CCCCC4)nc3)c(F)c2)C(=O)O1,4 mg/L,0.125 mg/L,0.125 mg/L,0.06 mg/L,> 16 mg/L,–
CN1CCN(/N=C/c2ccc(-c3ccc(N4C[C@H](CO)OC4=O)cc3F)cn2)CC1,0.5 mg/L,0.125 mg/L,0.125 mg/L,0.125 mg/L,0.125 mg/L,–
NC[C@H]1CN(c2ccc(-c3ccc(/C=N/N4CCCCC4)nc3)c(F)c2)C(=O)O1,32 mg/L,16 mg/L,8 mg/L,8 mg/L,32 mg/L,–
O=C1O[C@@H](CO)CN1c1ccc(-c2ccc(/C=N/NC3=NCCN3)nc2)c(F)c1,2 mg/L,0.5 mg/L,0.25 mg/L,0.5 mg/L,0.5 mg/L,–
COC[C@H]1CN(c2ccc(-c3ccc(/C=N/N4CCCCC4)nc3)c(F)c2)C(=O)O1,> 16 mg/L,–,> 16 mg/L,> 16 mg/L,–,–
NC(=S)N/N=C/c1ccc(-c2ccc(N3C[C@H](CO)OC3=O)cc2F)cn1,1 mg/L,0.125 mg/L,0.125 mg/L,0.125 mg/L,0.25 mg/L,–
Cc1cccc(N/N=C/c2ccc(-c3ccc(N4C[C@H](CO)OC4=O)cc3F)cn2)n1,1 mg/L,0.5 mg/L,0.25 mg/L,0.5 mg/L,0.5 mg/L,–
O=C1O[C@@H](CO)CN1c1ccc(-c2ccc(/C=N/Nc3ccc(Cl)nn3)nc2)c(F)c1,2 mg/L,0.5 mg/L,0.5 mg/L,0.5 mg/L,1 mg/L,–
O=C1O[C@@H](CO)CN1c1ccc(-c2ccc(/C=N/Nc3ccc(Cl)cc3)nc2)c(F)c1,32 mg/L,0.5 mg/L,0.25 mg/L,0.5 mg/L,0.5 mg/L,–
O=C1O[C@@H](CO)CN1c1ccc(-c2ccc(/C=N/Nc3ccc(Cl)cn3)nc2)c(F)c1,8 mg/L,0.5 mg/L,0.5 mg/L,0.5 mg/L,0.5 mg/L,–
N=C(N)N/N=C/c1ccc(-c2ccc(N3C[C@H](CO)OC3=O)cc2F)cn1,2 mg/L,1 mg/L,0.5 mg/L,1 mg/L,1 mg/L,–
CS(=O)(=O)N1CCN(/N=C/c2ccc(-c3ccc(N4C[C@H](CO)OC4=O)cc3F)cn2)CC1,1 mg/L,0.25 mg/L,0.125 mg/L,0.25 mg/L,0.125 mg/L,–
CC(=O)NC[C@H]1CN(c2ccc(-c3ccc(/C=N/N4CCS(=O)(=O)CC4)nc3)c(F)c2)C(=O)O1,0.25 mg/L,0.125 mg/L,0.125 mg/L,0.125 mg/L,0.125 mg/L,AUC(0-t) at 24 h [6]: 0.469 µg·h/mL; Cmax [7]: 0.14 µg/mL; solubility [8]: 2.38 µM; Ratio [9]: 64; AUC(0-t) at 24 h [10]: 1.29 µg·h/mL; Papp A→B [11]: 2.7 nm/s; half-life [12]: 44.4 min; bioavailability [13]: 3.6%; half-life [14]: 154 min; Tmax [15]: 30 min; clearance [16]: 0.774 L/h/kg; solubility [17]: 70.4 µM; Vd [18]: 0.58 L/kg; solubility [19]: 70.4 µM; solubility [20]: 38 µM
O=C1O[C@@H](CNS(=O)(=O)C2CC2)CN1c1ccc(-c2ccc(/C=N/N3CCCCC3)nc2)c(F)c1,> 16 mg/L,0.25 mg/L,0.25 mg/L,0.25 mg/L,> 16 mg/L,–
CC(C)S(=O)(=O)NC[C@H]1CN(c2ccc(-c3ccc(/C=N/N4CCCCC4)nc3)c(F)c2)C(=O)O1,> 64 mg/L,4 mg/L,2 mg/L,4 mg/L,> 64 mg/L,–
Cc1cc(Br)cc(C(=O)N2CCN(/N=C/c3ccc(-c4ccc(N5C[C@H](CO)OC5=O)cc4F)cn3)CC2)c1,4 mg/L,0.25 mg/L,0.125 mg/L,0.25 mg/L,0.25 mg/L,–
O=C1O[C@@H](CO)CN1c1ccc(-c2ccc(/C=N/N3CCSCC3)nc2)c(F)c1,8 mg/L,1 mg/L,1 mg/L,2 mg/L,2 mg/L,–
CC(C)(C)C(=O)NC[C@H]1CN(c2ccc(-c3ccc(/C=N/N4CCCCC4)nc3)c(F)c2)C(=O)O1,> 16 mg/L,4 mg/L,4 mg/L,4 mg/L,> 16 mg/L,–
CS(=O)(=O)OC[C@H]1CN(c2ccc(-c3ccc(/C=N/N4CCCCC4)nc3)c(F)c2)C(=O)O1,1 mg/L,0.008 mg/L,0.008 mg/L,0.015 mg/L,> 16 mg/L,–
O=C1O[C@@H](CF)CN1c1ccc(-c2ccc(/C=N/N3CCCCC3)nc2)c(F)c1,> 16 mg/L,0.5 mg/L,0.25 mg/L,0.25 mg/L,0.5 mg/L,–

# From ChEMBL document CHEMBL5550154, “Novel biaryloxazolidinone derivatives with broad-spectrum antibacterial activity, favorable drug-like profiles and in vivo efficacy against linezolid-resistant Staphylococcusaureus” (Eur J Med Chem, 2024)
